Experimental data reported in patent US10259810B2, “N-sulfonylated pyrazolo[3,4-b]pyridin-6-carboxamides and method of use” (AbbVie S.à.r.l., priority 2015, dated 2019).
pEC50: −log10 of the molar value. Like-named read-outs stand apart in the source and are kept apart here.

Assays:
Format in all cases: cell-based
ΔF508-CFTR [1] = target: T1, ΔF508-CFTR (Homo sapiens, UniProt P13569, DEL508-508); assay: CFTR cell surface levels using HRP-tagged ΔF508-CFTR expressing CFBE cells, in the presence of a co-corrector; settings: HRP-tagged ΔF508-CFTR CFBE cells, in the presence of 3 μM co-corrector; for pEC50: read-out: EC50
T1 construct: host or cells: CFBE41o-, doxycycline-inducible
Outline: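 Chemiluminescent read-out of surface HRP (15 min, dark) after PBS washes. Activity is normalized as 100×(sample−DMSO)/(3 μM co-corrector alone−DMSO).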

ΔF508-CFTR [2] = target: T1, ΔF508-CFTR; assay: CFTR cell surface levels using HRP-tagged ΔF508-CFTR expressing CFBE cells, intrinsic corrector capacity; design: % Activation: concentration or dose not given beside the values; settings: HRP-tagged ΔF508-CFTR expressing CFBE41o- cells, compound alone (intrinsic corrector capacity), 20 hours at 33° C.; for pEC50: read-out: EC50
Outline: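 Surface ΔF508-CFTR was measured as HRP chemiluminescence from an extracellular-loop-4 tag, expressed as percent activity between DMSO and a […] corrector control.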

CFTR ΔF508 = target: T2, CFTR ΔF508 (Homo sapiens, UniProt P13569, DEL508-508); assay: Chronic TECC assay, primary bronchial epithelial cells of CF patients homozygous for CFTR ΔF508 (corrector, co-corrector and potentiator); settings: chronic TECC; for % Activity at 3 μM (AUC**): test compound at 3 μM
T2 construct: bronchial epithelial cells isolated from CF patients homozygous for the CFTR ΔF508 mutation; McGill University; Asterand; University of North Carolina hAEC-CF; host or cells: primary human bronchial epithelial cells from CF patients homozygous for ΔF508, differentiated at air-liquid interface
Procedure: Primary Bronchial Epithelial Cells Protocol
The TECC (Tranepithelial Clamp Circuit, EP-design) assay measures the functionality of the cystic fibrosis Transmembrane Conductance regulator (CFTR) by measuring the short circuit current (Isc) generated over the basolateral and apical membrane of lung epithelial cells. In TECC the transepithelial potential PD and transepithelial resistance (Rt) are measured in an open circuit and transformed to Ieq using Ohm's law. 24 Wells can be measured simultaneously allowing a higher throughput compared to Ussing chambers.
For this purpose, bronchial epithelial cells isolated from CF patients homozygous for the CFTR ΔF508 mutation (hAEC-CF, Epithelix, Geneva, Switzerland; McGill University, Montreal, Qc; Asterand, Detroit, Mich.; University of North Carolina, Chapel Hill, N.C.) are plated on type IV collagen-coated Transwell® supports (Costar).
For electrophysiological recording of the “chronic” experiments, the human airway epithelia are mounted in the TECC heating plate for electrophysiological measurement and kept at 37° C. The epithelia are bathed in a NaCl-Ringer solution (120 mM NaCl, 25 mM NaHCO3, 1.2 mM CaCl2, 1.2 mM MgCl2, 0.8 mM KH2PO4, 0.8 mM K2HPO4, pH 7.4, 5 mM glucose) on both the basolateral and apical sides. Test compounds (corrector, co-corrector, 4-[(2R,4R)-4-({[1-(2,2-difluoro-1,3-benzodioxol-5-yl)cyclopropyl]carbonyl}amino)-7-(difluoromethoxy)-3,4-dihydro-2H-chromen-2-yl]benzoic acid, and potentiator, N-(3-carbamoyl-5,5,7,7-tetramethyl-4,7-dihydro-5H-thieno[2,3-c]pyran-2-yl)-1H-pyrazole-5-carboxamide), are re-added to the recording solution prior to measurement. […] Apical amiloride is used to inhibit the endogenous ENaC currents while forskolin is applied on both apical and basolateral side to stimulate CFTR. Measurements are done during a 20 minute timeframe with recordings every 2 minutes. The increase in Ieq is used as a measure for the increased CFTR activity, EC50 values can be generated by measuring impact of different concentrations of compound on Ieq on primary cells, for this purpose each transwell is treated with a different compound concentration. […] Raw data were normalized to percentage activity values using the equation: 100×(Sample−Negative control)/(Positive control−Negative Control).

[3] = AUC = full area under the curve upon forskolin stimulation, read-out: EC50 (nM) (AUC**)
[4] = test compound at 1 μM, AUC = full area under the curve upon forskolin stimulation
[5] = Ieq = calculations based on the maximum current, read-out: EC50 (nM) (Ieq*)
[6] = AUC = full area under the curve upon forskolin stimulation

T2 sequence (P13569 with tags, fused parts or gaps DEL508-508): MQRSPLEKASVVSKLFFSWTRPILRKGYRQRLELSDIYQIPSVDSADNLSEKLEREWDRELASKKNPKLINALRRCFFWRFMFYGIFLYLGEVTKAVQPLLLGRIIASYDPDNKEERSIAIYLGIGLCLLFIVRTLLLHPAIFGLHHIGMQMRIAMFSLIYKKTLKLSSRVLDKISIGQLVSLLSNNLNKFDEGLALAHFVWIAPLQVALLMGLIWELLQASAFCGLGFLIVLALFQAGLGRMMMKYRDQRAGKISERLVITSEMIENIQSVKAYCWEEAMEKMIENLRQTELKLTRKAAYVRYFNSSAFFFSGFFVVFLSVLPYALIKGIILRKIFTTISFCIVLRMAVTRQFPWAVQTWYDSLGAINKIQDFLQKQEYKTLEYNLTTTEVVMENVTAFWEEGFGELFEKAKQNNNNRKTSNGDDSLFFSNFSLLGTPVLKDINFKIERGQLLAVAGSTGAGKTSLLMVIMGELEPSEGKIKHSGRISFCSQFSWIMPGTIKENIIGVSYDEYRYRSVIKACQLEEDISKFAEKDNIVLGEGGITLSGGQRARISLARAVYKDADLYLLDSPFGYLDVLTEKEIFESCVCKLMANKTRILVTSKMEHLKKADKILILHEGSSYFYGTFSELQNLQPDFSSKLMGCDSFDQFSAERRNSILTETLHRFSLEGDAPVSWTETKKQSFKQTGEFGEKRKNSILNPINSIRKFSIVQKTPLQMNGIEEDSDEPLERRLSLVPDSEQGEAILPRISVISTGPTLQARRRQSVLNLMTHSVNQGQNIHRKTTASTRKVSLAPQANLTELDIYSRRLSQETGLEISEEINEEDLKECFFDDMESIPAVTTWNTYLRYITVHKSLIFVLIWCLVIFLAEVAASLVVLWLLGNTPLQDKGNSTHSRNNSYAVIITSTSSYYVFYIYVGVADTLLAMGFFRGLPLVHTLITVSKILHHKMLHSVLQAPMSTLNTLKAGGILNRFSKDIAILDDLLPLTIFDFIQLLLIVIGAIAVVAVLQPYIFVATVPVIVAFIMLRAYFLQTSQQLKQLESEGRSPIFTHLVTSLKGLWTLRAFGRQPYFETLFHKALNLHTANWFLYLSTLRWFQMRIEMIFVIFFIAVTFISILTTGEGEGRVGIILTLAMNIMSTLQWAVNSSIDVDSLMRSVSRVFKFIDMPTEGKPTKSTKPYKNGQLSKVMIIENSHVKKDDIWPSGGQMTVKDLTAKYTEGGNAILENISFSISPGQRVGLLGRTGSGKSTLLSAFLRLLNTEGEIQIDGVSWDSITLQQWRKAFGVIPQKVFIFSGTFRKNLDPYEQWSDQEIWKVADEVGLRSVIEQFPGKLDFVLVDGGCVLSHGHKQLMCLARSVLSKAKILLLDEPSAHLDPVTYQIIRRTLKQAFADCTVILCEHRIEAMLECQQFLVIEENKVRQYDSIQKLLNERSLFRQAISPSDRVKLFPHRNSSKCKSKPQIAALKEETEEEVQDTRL
T1 sequence (P13569 with tags, fused parts or gaps DEL508-508): as above

| SMILES | % Activation (ΔF508-CFTR [1]) | pEC50 (ΔF508-CFTR [1]) | % Activation (ΔF508-CFTR [2]) | pEC50 (ΔF508-CFTR [2]) | EC50 (CFTR ΔF508; [3]) | % Activity at 1 μM (AUC**) (CFTR ΔF508; [4]) | EC50 (CFTR ΔF508; [5]) | % Activity at 3 μM (AUC**) (CFTR ΔF508; [6]) | % Activity at 1 μM (Ieq*) (CFTR ΔF508; test compound at 1 μM, Ieq = calculations based on the maximum current) |
| --- | --- | --- | --- | --- | --- | --- | --- | --- | --- |
| CC(C)c1nn(-c2ccc(F)cc2)c2nc(C(=O)NS(C)(=O)=O)cc(N3CCC(N4CCCCC4)CC3)c12 [Compound 348, 4-([1,4'-bipiperidin]-1'-yl)-1-(4-fluorophenyl)-N-(methanesulfonyl)-3-(propan-2-yl)-1H-pyrazolo[3,4-b]pyridine-6-carboxamide] | 468.65% | 6.14 | 293.6% | 5.22 | 200 nM | 343.24% | – | – | – |
| O=C(NS(=O)(=O)CCO)c1cc(N2CCC(N3CCOCC3)CC2)c2c(C3CCC3)nn(-c3ccc(F)cc3)c2n1 [Compound 448, 3-cyclobutyl-1-(4-fluorophenyl)-N-(2-hydroxyethanesulfonyl)-4-[4-(morpholin-4-yl)piperidin-1-yl]-1H-pyrazolo[3,4-b]pyridine-6-carboxamide] | 431.1% | 6.74 | 258.2% | 6.32 | – | 116.8948% | – | – | – |
| CN(C)S(=O)(=O)NC(=O)c1cc(N2CCC(N3CCCC(C#N)C3)CC2)c2c(C3CCC3)nn(-c3ccc(F)cc3)c2n1 (stereo not drawn) [Compound 562, 4-(3-cyano[1,4'-bipiperidin]-1'-yl)-3-cyclobutyl-N-(dimethylsulfamoyl)-1-(4-fluorophenyl)-1H-pyrazolo[3,4-b]pyridine-6-carboxamide] | 589.55% | 7.11 | 341.3% | 7.15 | – | 289.8854% | – | – | – |
| CC(C)Oc1nn(C2CCCCC2)c2nc(C(=O)NS(C)(=O)=O)cc(-c3ccc(CN4CCN(C)CC4)cc3)c12 [Compound 441, 1-cyclohexyl-N-(methanesulfonyl)-4-{4-[(4-methylpiperazin-1-yl)methyl]phenyl}-3-[(propan-2-yl)oxy]-1H-pyrazolo[3,4-b]pyridine-6-carboxamide] | 393.27% | 6.71 | 196.1% | 6.46 | 206 nM | 236.6667% | – | – | – |
| CC(C)N1CCN(C2CCN(c3cc(C(=O)NS(=O)(=O)N(C)C)nc4c3c(C3CCC3)nn4-c3ccc(F)cc3)CC2)CC1 [Compound 382, 3-cyclobutyl-N-(dimethylsulfamoyl)-1-(4-fluorophenyl)-4-{4-[4-(propan-2-yl)piperazin-1-yl]piperidin-1-yl}-1H-pyrazolo[3,4-b]pyridine-6-carboxamide] | 500.01% | 6.80 | 305.9% | 6.58 | – | – | 205 nM | 347% | – |
| COCCN1CCN(c2cc(C(=O)NS(C)(=O)=O)nc3c2c(C(C)C)nn3-c2ccc(F)cc2)CC1 [Compound 340, 1-(4-fluorophenyl)-N-(methanesulfonyl)-4-[4-(2-methoxyethyl)piperazin-1-yl]-3-(propan-2-yl)-1H-pyrazolo[3,4-b]pyridine-6-carboxamide] | 319.2% | 6.10 | 138.95% | 5.86 | – | 216.53% | – | – | – |
| CN(C)S(=O)(=O)NC(=O)c1cc(C2CCN(C3CCC(F)(F)CC3)CC2)c2c(C3CCC3)nn(-c3ccc(F)cc3)c2n1 [Compound 594, 3-cyclobutyl-4-[1-(4,4-difluorocyclohexyl)piperidin-4-yl]-N-(dimethylsulfamoyl)-1-(4-fluorophenyl)-1H-pyrazolo[3,4-b]pyridine-6-carboxamide] | 308.05% | 6.74 | 135.7% | 6.28 | – | – | – | 320% | – |
| CS(=O)(=O)NC(=O)c1cc(N2CCC(S(C)(=O)=O)CC2)c2c(C3CCC3)nn(-c3ccccc3)c2n1 [Compound 190, 3-cyclobutyl-N-(methanesulfonyl)-4-[4-(methanesulfonyl)piperidin-1-yl]-1-phenyl-1H-pyrazolo[3,4-b]pyridine-6-carboxamide] | 502.4% | 5.91 | 284.8% | 6.01 | 51 nM | 269% | – | – | – |
| COCC1(OC)CCN(c2cc(C(=O)NS(C)(=O)=O)nc3c2c(C2CCC2)nn3-c2ccccc2)CC1 [Compound 247, 3-cyclobutyl-N-(methanesulfonyl)-4-[4-methoxy-4-(methoxymethyl)piperidin-1-yl]-1-phenyl-1H-pyrazolo[3,4-b]pyridine-6-carboxamide] | 281.7% | 6.66 | 126.8% | 6.34 | 81 nM | 422.93% | – | – | – |
| CC(C)Oc1nn(C2CCCCC2)c2nc(C(=O)NS(=O)(=O)N(C)C)cc(-c3ccc(C(=O)N4CCC(N(C)C)CC4)cc3)c12 [Compound 546, 1-cyclohexyl-4-{4-[4-(dimethylamino)piperidine-1-carbonyl]phenyl}-N-(dimethylsulfamoyl)-3-[(propan-2-yl)oxy]-1H-pyrazolo[3,4-b]pyridine-6-carboxamide] | 335.3% | 6.74 | 138.05% | 6.49 | – | – | – | 282.0317% | – |
| COCCN(CCOC)c1ccc(-c2cc(C(=O)NS(C)(=O)=O)nc3c2c(C(C)C)nn3C2CCCCC2)cn1 [Compound 121, 4-{6-[bis(2-methoxyethyl)amino]pyridin-3-yl}-1-cyclohexyl-N-(methanesulfonyl)-3-(propan-2-yl)-1H-pyrazolo[3,4-b]pyridine-6-carboxamide] | 368.6% | 6.55 | 159.13% | 6.19 | – | – | 74 nM | – | 206% |
| COCCS(=O)(=O)NC(=O)c1cc(N2CCC(COC)CC2)c2c(C(C)C)nn(-c3ccc(F)cc3)c2n1 [Compound 236, 1-(4-fluorophenyl)-N-(2-methoxyethanesulfonyl)-4-[4-(methoxymethyl)piperidin-1-yl]-3-(propan-2-yl)-1H-pyrazolo[3,4-b]pyridine-6-carboxamide] | 497.5% | 7.03 | 309.83% | 6.50 | 80 nM | 434.22% | – | – | – |
| O=C(NS(=O)(=O)N1CCC1)c1cc(N2CCC(N3CCOCC3)CC2)c2c(C3CCC3)nn(-c3ccc(F)cc3)c2n1 [Compound 576, N-(azetidine-1-sulfonyl)-3-cyclobutyl-1-(4-fluorophenyl)-4-[4-(morpholin-4-yl)piperidin-1-yl]-1H-pyrazolo[3,4-b]pyridine-6-carboxamide] | 443.5% | 7.26 | 257.15% | 6.86 | – | – | – | 225.798% | – |
| CN(C)S(=O)(=O)NC(=O)c1cc(N2CCC(CCN3CCOCC3)CC2)c2c(C3CCC3)nn(-c3ccc(F)cc3)c2n1 [Compound 416, 3-cyclobutyl-N-(dimethylsulfamoyl)-1-(4-fluorophenyl)-4-{4-[2-(morpholin-4-yl)ethyl]piperidin-1-yl}-1H-pyrazolo[3,4-b]pyridine-6-carboxamide] | 458.65% | 7.19 | 288% | 6.85 | 119 nM | 288.6036% | – | – | – |
